Assay results from ChEMBL document CHEMBL1201862, “PubChem BioAssay data set” (2004).
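Growth conditions: 96-well plates. Treatment: test compound, 48 hours, 5 concentrations. Analysis: linear interpolation between bracketing concentrations; unreached endpoints set to highest concentration. GI50: concentration for 50% inhibition of growth.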 Activity calls are given as the source filed them. Cut-off read from the data, not from the text of the source: active = GI50 up to about 1.1 µM and inactive = higher.

Columns and labels:
Assay in all cases: inhibition of tumour cell growth, NCI panel, 48 h
OVCAR-4 = tested on: OVCAR-4
HCT-15 = tested on: HCT-15
ACHN = tested on: ACHN
SR = tested on: SR
COLO 205 = tested on: COLO 205
SNB-19 = tested on: SNB-19
HCC 2998 = tested on: HCC 2998
M14 = tested on: M14
U-251 = tested on: U-251
HL-60 = tested on: HL-60
OVCAR-8 = tested on: OVCAR-8
MOLT-4 = tested on: MOLT-4
A498 = tested on: A498
DU-145 = tested on: DU-145
SNB-75 = tested on: SNB-75
BT-549 = tested on: BT-549
Malme-3M = tested on: Malme-3M
NCI-H522 = tested on: NCI-H522
UACC-257 = tested on: UACC-257
A549 = tested on: A549

| Compound | GI50 (OVCAR-4) | GI50 (HCT-15) [µM] | GI50 (ACHN) | GI50 (SR) | GI50 (COLO 205) | GI50 (SNB-19) | GI50 (HCC 2998) | GI50 (M14) | GI50 (U-251) | GI50 (HL-60) | GI50 (OVCAR-8) | GI50 (MOLT-4) | GI50 (A498) | GI50 (DU-145) | GI50 (SNB-75) | GI50 (BT-549) | GI50 (Malme-3M) | GI50 (NCI-H522) | GI50 (UACC-257) | GI50 (A549) |
| --- | --- | --- | --- | --- | --- | --- | --- | --- | --- | --- | --- | --- | --- | --- | --- | --- | --- | --- | --- | --- |
| O=C(CN1C(=O)c2ccccc2C1=O)NC1(C(=O)O)CCCC1 | > 100 µM (inactive) | > 100 | > 100 µM (inactive) | > 100 µM (inactive) | > 100 µM (inactive) | > 100 µM (inactive) | > 100 µM (inactive) | > 100 µM (inactive) | > 100 µM (inactive) | > 100 µM (inactive) | > 100 µM (inactive) | > 100 µM (inactive) | > 100 µM (inactive) | > 100 µM (inactive) | > 100 µM (inactive) | > 100 µM (inactive) | > 100 µM (inactive) | > 100 µM (inactive) | > 100 µM (inactive) | > 100 µM (inactive) |
| Cc1cccc(C[C@@]2(SCc3ccccc3)C(C)(C)[C@@H]3CC[C@@]2(C)C3)n1 | – | 13.8 | 15.5 µM (inactive) | 14.6 µM (inactive) | 15.6 µM (inactive) | 16.3 µM (inactive) | 15.4 µM (inactive) | 14.7 µM (inactive) | 16.6 µM (inactive) | 13.3 µM (inactive) | 16.5 µM (inactive) | 12.6 µM (inactive) | 15.3 µM (inactive) | 16.9 µM (inactive) | 15.2 µM (inactive) | 20 µM (inactive) | 15.5 µM (inactive) | 14.3 µM (inactive) | 14.1 µM (inactive) | 21.9 µM (inactive) |
| O=c1[nH][nH]c(=O)n1Cc1ccccc1 | > 100 µM (inactive) | > 100 | – | > 100 µM (inactive) | > 100 µM (inactive) | > 100 µM (inactive) | > 100 µM (inactive) | > 100 µM (inactive) | > 100 µM (inactive) | > 100 µM (inactive) | > 100 µM (inactive) | > 100 µM (inactive) | > 100 µM (inactive) | > 100 µM (inactive) | > 100 µM (inactive) | > 100 µM (inactive) | > 100 µM (inactive) | > 100 µM (inactive) | > 100 µM (inactive) | > 100 µM (inactive) |
| C1=Nc2sc3c(c2C2=NCCN12)CCCC3 | 20.6 µM (inactive) | 16.4 | 17.1 µM (inactive) | 21.2 µM (inactive) | 23.3 µM (inactive) | 18.4 µM (inactive) | 11.8 µM (inactive) | – | 21.4 µM (inactive) | 13.6 µM (inactive) | 17.1 µM (inactive) | 13.8 µM (inactive) | 20.6 µM (inactive) | 16.3 µM (inactive) | 18.9 µM (inactive) | 15.2 µM (inactive) | 16.9 µM (inactive) | 15.9 µM (inactive) | 16.3 µM (inactive) | – |
| COc1cccc2c1C(=O)c1c(O)c3c(c(O)c1C2=O)C[C@@](O)(C(=O)CO)CC3OC1CC(O)C(O)C(C)O1 (some centres undefined) | 1.01 µM (active) | 0.397 | 0.0527 µM (active) | < 0.01 µM (active) | – | 0.0822 µM (active) | 0.562 µM (active) | 0.361 µM (active) | 0.0679 µM (active) | 0.0267 µM (active) | 0.256 µM (active) | 0.0202 µM (active) | 0.171 µM (active) | 0.0294 µM (active) | 0.167 µM (active) | 0.279 µM (active) | 0.141 µM (active) | 0.211 µM (active) | 0.453 µM (active) | 0.104 µM (active) |
| CC(C)C(Sc1nc(N)nc2nc[nH]c12)C(=O)O (centres undefined) | > 100 µM (inactive) | > 100 | > 100 µM (inactive) | > 100 µM (inactive) | > 100 µM (inactive) | > 100 µM (inactive) | > 100 µM (inactive) | > 100 µM (inactive) | > 100 µM (inactive) | > 100 µM (inactive) | > 100 µM (inactive) | – | > 100 µM (inactive) | > 100 µM (inactive) | > 100 µM (inactive) | > 100 µM (inactive) | > 100 µM (inactive) | > 100 µM (inactive) | > 100 µM (inactive) | > 100 µM (inactive) |
